From patent US9102614B2, “Naphth-2-ylacetic acid derivatives to treat AIDS” (Gilead Sciences, Inc., priority 2010, dated 2015)

system: HIV-IIIb; assay: Test A: Antiviral Assays in MT4 Cells; format: cell-based; conditions: Human immunodeficiency virus 1, IIIB, MT4, 120 h
Protocol: Test A: Antiviral Assays in MT4 Cells
For the antiviral assay utilizing MT-4 cells, 0.4 μL of […] test concentration of 3-fold serially diluted compound in DMSO was added to 40 μL of cell growth medium (RPMI 1640, 10% FBS, 1% penicillin/Streptomycin, 1% L-Glutamine, 1% HEPES) in each well of 384-well assay plates (10 concentrations) in quadruplicate.
1 mL aliquots of 2×10e6 MT-4 cells are pre-infected for 1 and 3 hrs respectively, @37° C. with 25 μL (MT4) or of either cell growth medium (mock-infected) or a fresh 1:250 dilution of an HIV-IIIb concentrated ABI stock (0.004 m.o.i. for MT4 cells). Infected and uninfected cells are diluted in cell growth medium and 35 uL of 2000 (for MT4) cells is added to each well of the assay plates.
Assay plates were then incubated in a 37° C. incubator. After 5 days of incubation, 25 μl of 2× concentrated CellTiter-Glo™ Reagent (catalog #G7573, Promega Biosciences, Inc., Madison, Wis.) was added to each well of the assay plate. Cell lysis was carried out by incubating at room temperature for 2-3 min and then chemiluminescence was read using the Envision reader (PerkinElmer).

SMILES	EC50 [nM]
Cc1cc2ccccc2c(-c2cccc(N3CCC3)c2)c1[C@H](OC(C)(C)C)C(=O)O [Compound 19, (S)-2-(1-(3-(Azetidin-1-yl)phenyl)-3-methylnaphthalen-2-yl)-2-tert-butoxyacetic acid]	5400
Cc1cc2c(C#CCN(C)C)cccc2c(-c2ccc(Cl)cc2)c1C(OC(C)(C)C)C(=O)O (centres unmarked) [Compound 39, 2-tert-Butoxy-2-(1-(4-chlorophenyl)-5-(3-(dimethylamino)prop-1-ynyl)-3-methylnaphthalen-2-yl)acetic acid]	700

same assay, conditions: Human immunodeficiency virus 1, IIIB, MT4, 120 h, MT-4 cells infected with HIV-IIIb (0.004 m.o.i.), 5 days of incubation, CellTiter-Glo chemiluminescence readout; read-out: EC50

SMILES	EC50 [nM]
Cc1cc2cc(F)ccc2c(-c2ccc(Cl)cc2)c1C(OC(C)(C)C)C(=O)O (centres unmarked) [Compound 42, 2-tert-Butoxy-2-(1-(4-chlorophenyl)-6-fluoro-3-methylnaphthalen-2-yl)acetic acid]	110
Cc1cc2ccccc2c(-c2cccc3cccnc23)c1[C@H](OC(C)(C)C)C(=O)O [Compound 4L, (S)-2-tert-butoxy-2-((S)-3-methyl-1-(quinolin-8-yl)naphthalen-2-yl)acetic acid]	22000
Cc1cc2ccc(C#CC(C)(C)O)cc2c(-c2ccc(Cl)cc2)c1C(OC(C)(C)C)C(=O)O (centres unmarked) [Compound 69, 2-tert-butoxy-2-(1-(4-chlorophenyl)-7-(3-hydroxy-3-methylbut-1-ynyl)-3-methylnaphthalen-2-yl)acetic acid]	380
Cc1cc2cc(-c3cccnc3)ccc2c(-c2ccc(Cl)cc2)c1[C@H](OC(C)(C)C)C(=O)O [Compound 54, (S)-2-tert-Butoxy-2-(1-(4-chlorophenyl)-3-methyl-6-(pyridin-3-yl)naphthalen-2-yl)acetic acid]	55
Cc1c([C@H](OC(C)(C)C)C(=O)O)c(-c2ccc(Cl)cc2)c2ccccc2c1Br [Compound 150B, (S)-2-(4-bromo-1-(4-chlorophenyl)-3-methylnaphthalen-2-yl)-2-tert-butoxyacetic acid]	260
Cc1cc2cc(F)c(F)cc2c(-c2ccc3c4c(ccnc24)CCO3)c1[C@H](OC(C)(C)C)C(=O)O (atropisomer, axis not shown) [Compound 174]	3200
Cc1cc2c(C(N)=O)cc(F)cc2c(-c2ccc3c4c(ccnc24)CCO3)c1[C@H](OC(C)(C)C)C(=O)O (atropisomer, axis not shown) [Compound 155]	29000
Cc1cc2ccc(C#CC(C)(C)N)cc2c(-c2ccc3c4c(ccnc24)CCO3)c1C(OC(C)(C)C)C(=O)O (centres unmarked) [Compound 176]	12000
CCc1ccc2c(-c3ccc4c5c(ccnc35)CCO4)c([C@H](OC(C)(C)C)C(=O)O)c(C)cc2c1F (atropisomer, axis not shown) [Compound 120, (S)-2-tert-Butoxy-2-((R)-1-(2,3-dihydropyrano[4,3,2-de]quinolin-7-yl)-6-ethyl-5-fluoro-3-methylnaphthalen-2-yl)acetic acid]	32
Cc1cc2c(F)cccc2c(-c2ccc(Cl)cc2)c1C(OC(C)(C)C)C(=O)O (centres unmarked) [Compound 46, 2-tert-Butoxy-2-(1-(4-chlorophenyl)-5-fluoro-3-methylnaphthalen-2-yl)acetic acid]	1400
Cc1cc2ccc(Cl)cc2c(-c2ccc3c4c(ccnc24)CCO3)c1[C@H](OC(C)(C)C)C(=O)O (atropisomer, axis not shown) [Compound 180]	29000
Cc1cc2ccc(CCC(C)(C)O)cc2c(-c2ccc(Cl)cc2)c1C(OC(C)(C)C)C(=O)O (centres unmarked) [Compound 89, 2-tert-Butoxy-2-(1-(4-chlorophenyl)-7-(3-hydroxy-3-methylbutyl)-3-methylnaphthalen-2-yl)acetic acid]	280
Cc1cc2ccccc2c(-c2ccc(Cl)cc2Cl)c1C(OC(C)(C)C)C(=O)O (centres unmarked) [Compound 33, tert-Butoxy-[1-(2,4-dichloro-phenyl)-3-methyl-naphthalen-2-yl]-acetic acid]	120
Cc1c(C(OC(C)(C)C)C(=O)O)c(-c2ccc(Cl)cc2)c2ccccc2c1-c1cnc(=O)[nH]c1 (centres unmarked) [Compound 146, 2-tert-Butoxy-2-(1-(4-chlorophenyl)-3-methyl-4-(2-oxo-1,2-dihydropyrimidin-5-yl)naphthalen-2-yl)acetic acid]	10000
Cc1cc2cc(-c3ccncc3)ccc2c(-c2ccc(Cl)cc2)c1[C@H](OC(C)(C)C)C(=O)O [Compound 53, (S)-2-tert-Butoxy-2-(1-(4-chlorophenyl)-3-methyl-6-(pyridin-4-yl)naphthalen-2-yl)acetic acid]	120
Cc1cc2ccccc2c(C2=CCC(C)(C)CC2)c1[C@H](OC(C)(C)C)C(=O)O [Compound 14, (S)-2-tert-Butoxy-2-(1-(4,4-dimethylcyclohex-1-enyl)-3-methylnaphthalen-2-yl)acetic acid]	11
Cc1cc2ccc(Br)cc2c(-c2ccc(Cl)cc2)c1C(OC(C)(C)C)C(=O)O (centres unmarked) [Compound 71, 2-(7-Bromo-1-(4-chlorophenyl)-3-methylnaphthalen-2-yl)-2-tert-butoxyacetic acid]	35000
Cc1cc2ccc(C#CC3(O)CCOCC3)cc2c(-c2ccc(Cl)cc2)c1C(OC(C)(C)C)C(=O)O (centres unmarked) [Compound 80, 2-tert-Butoxy-2-(1-(4-chlorophenyl)-7-((4-hydroxytetrahydro-2H-pyran-4-yl)ethynyl)-3-methylnaphthalen-2-yl)acetic acid]	51
CCc1cc2ccccc2c(-c2ccc(Cl)cc2)c1[C@H](OC(C)(C)C)C(=O)O [Compound 29B, (S)-2-tert-butoxy-2-(1-(4-chlorophenyl)-3-ethylnaphthalen-2-yl)acetic acid]	500
Cc1c(C(OC(C)(C)C)C(=O)O)c(-c2ccc(Cl)cc2)c2ccccc2c1C#CCN(C)C (centres unmarked) [Compound 131, 2-tert-Butoxy-2-(1-(4-chlorophenyl)-4-(3-(dimethylamino)prop-1-ynyl)-3-methylnaphthalen-2-yl)acetic acid]	62
Cc1cc2ccccc2c(-c2cnc3ccccc3c2)c1[C@H](OC(C)(C)C)C(=O)O [Compound 16, (S)-2-tert-Butoxy-2-(3-methyl-1-(quinolin-3-yl)naphthalen-2-yl)acetic acid]	7000
Cc1cc2c(Cl)cccc2c(-c2ccc(Cl)cc2)c1C(OC(C)(C)C)C(=O)O (centres unmarked) [Compound 45, 2-tert-Butoxy-2-(5-chloro-1-(4-chlorophenyl)-3-methylnaphthalen-2-yl)acetic acid]	1800
Cc1cc2cc(C(C)C)c(F)cc2c(-c2ccc3c4c(ccnc24)CCO3)c1[C@H](OC(C)(C)C)C(=O)O (atropisomer, axis not shown) [Compound 167]	29000
Cc1cc2ccc(C#CC(C)(C)N)cc2c(-c2ccc(Cl)cc2)c1C(OC(C)(C)C)C(=O)O (centres unmarked) [Compound 85, 2-(7-(3-Amino-3-methylbut-1-ynyl)-1-(4-chlorophenyl)-3-methylnaphthalen-2-yl)-2-tert-butoxyacetic acid]	18

same assay, conditions: MT-4 cells infected with HIV-IIIb (0.004 m.o.i.), 5 days of incubation, CellTiter-Glo chemiluminescence readout; read-out: EC50

SMILES	EC50 [nM]
Cc1cc2c(F)c(CO)ccc2c(-c2ccc3c4c(ccnc24)CCO3)c1[C@H](OC(C)(C)C)C(=O)O [Compound 186B, (S)-2-tert-butoxy-2-((R)-1-(2,3-dihydropyrano[4,3,2-de]quinolin-7-yl)-5-fluoro-6-(hydroxymethyl)-3-methylnaphthalen-2-yl)acetic acid]	24
Cc1cc2ccccc2c(-c2ccc3c4c(cc[n+]([O-])c24)CCO3)c1[C@H](OC(C)(C)C)C(=O)O [Compound 23, 7-((R)-2-((S)-tert-Butoxy(carboxy)methyl)-3-methylnaphthalen-1-yl)-2,3-dihydropyrano[4,3,2-de]quinoline 6-oxide]	24
Cc1cc2cc(F)ccc2c(-c2ccc3c4c(ccnc24)CCO3)c1C(OC(C)(C)C)C(=O)O (centres unmarked) [Compound 162]	1400
Cc1cc2ccccc2c(-c2cc(F)cc3cccnc23)c1[C@H](OC(C)(C)C)C(=O)O [Compound 159]	1300
Cc1cc2c(F)c(C)ccc2c(-c2ccc3c4c(ccnc24)CCO3)c1[C@H](OC(C)(C)C)C(=O)O [Compound 119, (S)-2-tert-Butoxy-2-((R)-1-(2,3-dihydropyrano[4,3,2-de]quinolin-7-yl)-5-fluoro-3,6-dimethylnaphthalen-2-yl)acetic acid]	11
Cc1cc2ccccc2c(C2=CC(C)(C)CCC2=O)c1[C@H](OC(C)(C)C)C(=O)O [Compound 157]	10000
Cc1cc2ccccc2c(-c2ccc3c4c(ccnc24)CCO3)c1[C@H](OC(C)(C)C)C(=O)O [Compound 5K, (S)-2-tert-Butoxy-2-((S)-1-(2,3-dihydropyrano[4,3,2-de]quinolin-7-yl)-3-methylnaphthalen-2-yl)acetic acid]	4600
Cc1cc2ccccc2c(-c2cc(F)cc3cccnc23)c1[C@H](OC(C)(C)C)C(=O)O (atropisomer, axis not shown) [Compound 9, (S)-2-tert-Butoxy-2-(1-((R)-6-fluoroquinolin-8-yl)-3-methylnaphthalen-2-yl)acetic acid]	1300
Cc1c([C@H](OC(C)(C)C)C(=O)O)c(-c2ccc3c4c(ccnc24)CCO3)c2ccccc2c1F [Compound 122, (2S)-2-tert-butoxy-2-((R)-1-(2,3-dihydropyrano[4,3,2-de]quinolin-7-yl)-4-fluoro-3-methylnaphthalen-2-yl)acetic acid]	36
